Measurements as given in ChEMBL document CHEMBL4043232, “A mimetic of the mSin3-binding helix of NRSF/REST ameliorates abnormal pain behavior in chronic pain models” (2017).
Calls of active or inactive are those of the source.

Tests used:
[1] = biological target: T1, Paired amphipathic helix protein Sin3b (Mus musculus) (UniProt Q62141); experiment: Inhibition of N-terminal GST-tagged mouse Sin3B PAH1 domain (28 to 107 residues) expressed in Escherichia coli BL21 (DE3) binding to NRSF/REST at 100 uM by 1H STD-NMR spectrometric analysis
T1 sequence (whole entry): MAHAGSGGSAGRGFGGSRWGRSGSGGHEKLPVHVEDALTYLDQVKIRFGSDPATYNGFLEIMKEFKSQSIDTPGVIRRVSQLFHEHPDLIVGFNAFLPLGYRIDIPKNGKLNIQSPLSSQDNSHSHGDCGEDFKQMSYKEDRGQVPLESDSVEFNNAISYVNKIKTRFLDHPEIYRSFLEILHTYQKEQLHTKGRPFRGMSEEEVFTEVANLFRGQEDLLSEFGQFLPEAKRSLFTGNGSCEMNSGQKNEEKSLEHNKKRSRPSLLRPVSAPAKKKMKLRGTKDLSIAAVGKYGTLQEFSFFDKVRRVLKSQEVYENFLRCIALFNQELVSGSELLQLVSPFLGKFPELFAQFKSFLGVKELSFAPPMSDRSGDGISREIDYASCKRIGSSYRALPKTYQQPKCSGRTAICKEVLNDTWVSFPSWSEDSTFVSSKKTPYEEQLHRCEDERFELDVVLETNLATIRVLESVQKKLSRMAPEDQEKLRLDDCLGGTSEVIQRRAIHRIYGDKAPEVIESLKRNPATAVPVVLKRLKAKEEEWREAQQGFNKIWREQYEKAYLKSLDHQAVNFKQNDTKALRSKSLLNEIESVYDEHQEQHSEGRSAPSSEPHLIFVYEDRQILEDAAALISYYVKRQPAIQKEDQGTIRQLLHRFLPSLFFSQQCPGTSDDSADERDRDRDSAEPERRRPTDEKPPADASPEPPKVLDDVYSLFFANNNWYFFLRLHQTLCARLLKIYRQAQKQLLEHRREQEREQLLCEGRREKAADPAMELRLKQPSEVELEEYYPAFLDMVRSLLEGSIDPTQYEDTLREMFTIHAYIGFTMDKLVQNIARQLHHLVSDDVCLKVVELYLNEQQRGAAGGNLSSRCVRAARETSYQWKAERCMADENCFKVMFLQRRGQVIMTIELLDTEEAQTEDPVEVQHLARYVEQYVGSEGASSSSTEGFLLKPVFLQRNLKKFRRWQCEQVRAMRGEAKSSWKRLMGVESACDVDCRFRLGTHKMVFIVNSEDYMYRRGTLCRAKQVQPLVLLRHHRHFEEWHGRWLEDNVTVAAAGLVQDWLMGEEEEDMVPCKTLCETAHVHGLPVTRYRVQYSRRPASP

[2] = biological target: T1, Paired amphipathic helix protein Sin3b (Mus musculus); experiment: Binding affinity to N-terminal GST-tagged mouse Sin3B PAH1 domain (28 to 107 residues) expressed in Escherichia coli BL21 (DE3) assessed as chemical shift perturbations at 100 uM by 1H-15N HSQC titration analysis
[3] = test system: Mus musculus; experiment: Antinociceptive activity in partial sciatic nerve ligation C57BL/6J mouse model of neuropathic pain assessed as reduction in C-fiber stimulated hyposensitivity at 10 mg/kg, ip administered daily from day 5 to day 11 measured on day 12; format: functional, organism-based
[4] = test system: Mus musculus; experiment: Antinociceptive activity in partial sciatic nerve ligation C57BL/6J mouse model of neuropathic pain assessed as reduction in peripheral morphine analgesia at 10 mg/kg, ip administered daily from day 5 to day 11 measured on day 12; format: functional, organism-based
[5] = test system: Mus musculus; experiment: Antinociceptive activity in intermittent cold stress treated partial sciatic nerve ligation C57BL/6J mouse model of fibromyalgia assessed as reversal of thermal hyperalgesia at 10 mg/kg, ip administered daily from day 5 to day 11 measured on day 12; format: functional, organism-based
[6] = test system: Mus musculus; experiment: Antinociceptive activity in intermittent cold stress treated partial sciatic nerve ligation C57BL/6J mouse model of fibromyalgia assessed as reduction in central morphine analgesia at 10 mg/kg, ip administered daily from day 5 to day 11 measured on day 12; format: functional, organism-based
[7] = test system: Mus musculus; experiment: Antinociceptive activity in intermittent psychological stress treated partial sciatic nerve ligation C57BL/6J mouse model of fibromyalgia assessed as reversal of thermal hyperalgesia at 10 mg/kg, ip administered daily from day 5 to day 11 measured on day 12; format: functional, organism-based
[8] = test system: Mus musculus; experiment: Antinociceptive activity in intermittent psychological stress treated partial sciatic nerve ligation C57BL/6J mouse model of fibromyalgia assessed as reduction in central morphine analgesia at 10 mg/kg, ip administered daily from day 5 to day 11 measured on day 12; format: functional, organism-based
[9] = test system: Mus musculus; experiment: Antinociceptive activity in partial sciatic nerve ligation C57BL/6J mouse model of neuropathic pain assessed as C-fiber stimulated paw withdrawal threshold at 10 mg/kg, ip measured on day 5 (reference value: 3 microA); format: functional
[10] = test system: Mus musculus; experiment: Antinociceptive activity in partial sciatic nerve ligation C57BL/6J mouse model of neuropathic pain assessed as C-fiber stimulated paw withdrawal threshold at 10 mg/kg, ip measured on day 12 (reference value: 6 microA); format: functional
[11] = test system: Mus musculus; experiment: Antinociceptive activity in intermittent cold stress treated partial sciatic nerve ligation C57BL/6J mouse model of fibromyalgia assessed as paw withdrawal latency time at 10 mg/kg, ip measured on day 5 (reference value: 10 sec); format: functional
[12] = test system: Mus musculus; experiment: Antinociceptive activity in intermittent cold stress treated partial sciatic nerve ligation C57BL/6J mouse model of fibromyalgia assessed as paw withdrawal latency time at 10 mg/kg, ip measured on day 12 (reference value: 13 sec); format: functional
[13] = test system: Mus musculus; experiment: Antinociceptive activity in intermittent psychological stress treated partial sciatic nerve ligation C57BL/6J mouse model of fibromyalgia assessed as paw withdrawal latency time at 10 mg/kg, ip measured on day 5 (reference value: 3 sec); format: functional
[14] = test system: Mus musculus; experiment: Antinociceptive activity in intermittent psychological stress treated partial sciatic nerve ligation C57BL/6J mouse model of fibromyalgia assessed as paw withdrawal latency time at 10 mg/kg, ip measured on day 12 (reference value: 3 sec); format: functional
[15] = test system: Mus musculus; experiment: Antinociceptive activity in intermittent psychological stress treated partial sciatic nerve ligation C57BL/6J mouse model of fibromyalgia assessed as paw withdrawal latency time at 10 mg/kg, ip measured on day 19 (reference value: 3 sec); format: functional
[16] = test system: Mus musculus; experiment: Antinociceptive activity in intermittent psychological stress treated partial sciatic nerve ligation C57BL/6J mouse model of fibromyalgia assessed as paw withdrawal latency time at 10 mg/kg, ip measured on day 5 (reference value: 4 sec); format: functional
[17] = test system: Mus musculus; experiment: Antinociceptive activity in intermittent psychological stress treated partial sciatic nerve ligation C57BL/6J mouse model of fibromyalgia assessed as paw withdrawal latency time at 10 mg/kg, ip measured on day 12 (reference value: 4 sec); format: functional
[18] = test system: Mus musculus; experiment: Antinociceptive activity in intermittent psychological stress treated partial sciatic nerve ligation C57BL/6J mouse model of fibromyalgia assessed as paw withdrawal latency time at 10 mg/kg, ip measured on day 19 (reference value: 4 sec); format: functional

SMILES | inhibition [1] | Activity [2] | Activity [3] | Activity [4] | Activity [5] | Activity [6] | Activity [7] | Activity [8] | Activity [9] | Activity [10] | Time [11] | Time [12] | Time [13] | Time [14] | Time [15] | Time [16] | Time [17] | Time [18]
CCCC[C@H]1C(=O)N(CCC(C)C)C[C@@H]2N(C(=O)OC(C)C)CC3(CCCCC3)C(=O)N21 | Active |  |  |  |  |  |  |  |  |  |  |  |  |  |  |  |  | 
CC[C@H]1ON(C(=O)OC(C)C)[C@H]2CN(CCC(C)C)C(=O)[C@H](CCSC)N2C1=O | Active | Active | Active | Active | Active | Active | Active | Active | 3 microA | 6 microA | 10 s | 13 s | 3 s | 3 s | 3 s | 4 s | 4 s | 4 s
